Target: tau (Homo sapiens, UniProt P10636)
Assay: MCE Phenols Library screening, tau biosensor cell seeding assay (AvZ)
Type: cell-based
Conditions: for AvZ (average z score of seeding, SDs from the mean level of seeding): 10 μM phenol in cell cultures, AD brain homogenate preincubated 16 hours, two biological replicates, positive = catalyzes seeding, negative = inhibits; for Z repl 1 / Z Repl 2: Z score; for Z repl 1 / raw data 1: replicate 1; for Z Repl 2 / raw data 2: replicate 2
[1] = average Z score of the two replicates, MCE Phenols Library screen
[2] = average puncta of the two replicates
[3] = average Z score of the two replicates, tau seeding
[4] = average Z score of two replicates, Phenols Library screen

Sequence of tau (P10636 623-695 limits assumed): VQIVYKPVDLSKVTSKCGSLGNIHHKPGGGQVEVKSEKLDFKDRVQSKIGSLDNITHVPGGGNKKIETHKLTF

SMILES | AvZ (average z score of seeding, SDs from the mean level of seeding) | Z repl 1 | Z Repl 2 | av puncta (average of raw data 1 and 2) | raw data 1 (puncta) | raw data 2 (puncta) | av Z [1] | av puncta [2] | raw data 1 (raw puncta) | raw data 2 (raw puncta) | av Z [3] | av Z (average Z score of the two replicates, tau biosensor seeding, MCE Phenols Library screen) | av Z [4]
C=CCc1ccc(O)c(O)c1 [4-Allylcatechol] | -0.761 | -0.394 | -1.127 | 11173.7 | 21621.8 | 725.499 |  |  |  |  |  |  | 
CCc1ccc(O)cc1O [4-Ethylresorcinol] | -1.119 | -1.505 | -0.734 | 6604.27 | 8283.51 | 4925.02 |  |  |  |  |  |  | 
COc1cc(/C=C/C(=O)O[C@H]2[C@H](O)C[C@](O)(C(=O)O)C[C@H]2O)ccc1O [4-Feruloylquinic acid] |  | -1.622 | -0.646 | 6372.47 | 6875.06 | 5869.87 | -1.134 |  |  |  |  |  | 
O=Cc1c[nH]c2cccc(O)c12 [4-Hydroxy-1H-indole-3-carbaldehyde] | 0.212 | 0.51 | -0.086 | 22163.8 | 32475.1 | 11852.6 |  |  |  |  |  |  | 
O=C(O)c1ccc(O)cc1 [4-Hydroxybenzoic acid] | -0.554 | -0.323 | -0.785 |  | 22475.3 | 4386.59 |  | 13431 |  |  |  |  | 
N#CCc1ccc(O)cc1 [4-Hydroxybenzyl cyanide] | -0.064 | 0.423 | -0.552 | 19148.8 | 31425.1 | 6872.51 |  |  |  |  |  |  | 
NCc1ccc(O)cc1 [4-Hydroxybenzylamine] | -0.572 | -0.693 | -0.451 |  | 18024.8 | 7945.11 |  | 12984.9 |  |  |  |  | 
O=C(/C=C/c1ccc(O)cc1)c1ccccc1 [4-Hydroxychalcone] |  | -0.784 | -0.093 |  |  |  | -0.439 | 14353.6 | 16932.9 | 11774.3 |  |  | 
CCC1(c2ccc(O)cc2)NC(=O)N(C)C1=O (centres unmarked) [4-Hydroxymephenytoin] |  | -0.081 | -0.754 |  |  |  | -0.418 | 15044.9 | 25375.4 | 4714.28 |  |  | 
CC(=O)OCCc1ccc(O)c(O)c1 [4-Hydroxytyrosol acetate] | -0.526 |  |  |  |  |  |  |  |  |  |  |  | 
COc1ccc(C=O)cc1 [4-Methoxybenzaldehyde] | 0.308 | -0.17 | 0.786 | 22737.8 | 24311 | 21164.6 |  |  |  |  |  |  | 
Cc1ccc(O)c(O)c1 [4-Methylcatechol] | -1.257 | -1.54 | -0.975 | 5109.52 | 7864.83 | 2354.22 |  |  |  |  |  |  | 
Cc1cc(=O)oc2c(O)c(O)ccc12 [4-Methyldaphnetin] |  | -1.037 | -0.74 | 9377.72 | 13895.3 | 4860.11 | -0.889 |  |  |  |  |  | 
Cc1cc(=O)oc2cc(O)c(O)cc12 [4-Methylesculetin] |  | 0.302 | -0.022 | 21252.2 | 29975.4 | 12529 |  |  |  |  | 0.14 |  | 
Cc1cc(=O)oc2cc(O)ccc12 [4-Methylumbelliferone] |  | -0.898 | -0.379 |  | 15562.7 | 8717.47 | -0.639 | 12140.1 |  |  |  |  | 
CC(=O)c1ccc(O)cc1C [4?-Hydroxy-2?-methylacetophenone] | 0.123 | 0.511 | -0.266 | 21207.9 | 32488.1 | 9927.81 |  |  |  |  |  |  | 
Oc1cc2cc[nH]c2cc1O [5,6-Dihydroxyindole] | -0.59 | -0.206 | -0.973 |  | 23871.3 | 2376.21 |  | 13123.8 |  |  |  |  | 
Cc1cc(=O)oc2cc(O)cc(O)c12 [5,7-Dihydroxy-4-methylcoumarin] |  | 0.623 | -0.301 | 21685.4 | 33822.8 | 9548.03 |  |  |  |  | 0.161 |  | 
O=c1ccoc2cc(O)cc(O)c12 [5,7-Dihydroxychromone] |  | -1.184 | -0.309 |  | 12131.6 | 9469.43 | -0.746 | 10800.5 |  |  |  |  | 
COc1cc(OC)c2c(=O)cc(-c3ccc(O)c(O)c3)oc2c1 [5,7-Dimethoxyluteolin] |  | 1.798 | 1.915 | 40573.2 | 47932.5 | 33213.9 |  |  |  |  |  | 1.856 | 
Nc1ccc(O)c(C(=O)O)c1 [5-Aminosalicylic Acid, reference compound] | -0.176 | -0.552 | 0.2 | 17310.9 | 19721.7 | 14900.2 |  |  |  |  |  |  | 
COc1ccc(-c2cc(=O)c3c(O)c(OC)c(OC)cc3o2)cc1OC [5-Desmethylsinensetin] |  | 0.14 | -0.394 | 18294 | 28033.5 | 8554.47 |  |  |  |  |  |  | -0.127
COc1cc(/C=C/C(=O)O)cc(O)c1O [5-Hydroxyferulic acid] | -0.968 | -0.814 | -1.121 | 8685.03 | 16579.9 | 790.19 |  |  |  |  |  |  | 
O=c1cc(-c2ccccc2)oc2cccc(O)c12 [5-Hydroxyflavone] |  | -1.378 | -0.72 | 7440.82 | 9800.36 | 5081.28 | -1.049 |  |  |  |  |  | 
Oc1ccc2[nH]ccc2c1 [5-Hydroxyindole] | -0.616 | -0.683 | -0.549 |  | 18144.2 | 6901.21 |  | 12522.7 |  |  |  |  | 
COc1ccc(O)c(C(=O)O)c1 [5-Methoxysalicylic acid] | 0.136 | -0.389 | 0.66 | 20749.6 | 21680.5 | 19818.6 |  |  |  |  |  |  | 
COc1cc2c(=O)c(-c3ccc(O)cc3)coc2cc1O[C@@H]1O[C@H](COC(C)=O)[C@@H](O)[C@H](O)[C@H]1O [6''-O-Acetylglycitin] |  | -0.368 | -0.234 |  |  |  | -0.301 | 16095.7 | 21928.1 | 10263.4 |  |  | 
CCCCC[C@H](O)CC(=O)CCc1ccc(O)c(OC)c1 [6-Gingerol] | 0.629 |  |  |  |  |  |  |  |  |  |  |  | 
O=c1ccc2cc(O)ccc2o1 [6-Hydroxycoumarin] |  | -0.422 | 0.434 | 19344 | 21288.5 | 17399.5 |  |  |  |  |  |  | 0.006

— PMC11784839, “Monoaminergic neurotransmitters are bimodal effectors of tau aggregation” (Science Advances, 2025)
